For orientation: Kd means the equilibrium constant for the complex coming apart. Low values mean a tighter complex, high ones a looser complex.

Experimental findings from article PMC9029994 (RSC Advances, 2021) are described below.

Structures are written as SMILES.

The target of the test is Sperm whale WT Mb (myoglobin, Mb) (Physeter macrocephalus, UniProt P02185, F44H/H65A). Nature of the test: biochemical.
Chain of Sperm whale WT Mb (myoglobin, Mb) (P02185 2-154 F44H/H65A): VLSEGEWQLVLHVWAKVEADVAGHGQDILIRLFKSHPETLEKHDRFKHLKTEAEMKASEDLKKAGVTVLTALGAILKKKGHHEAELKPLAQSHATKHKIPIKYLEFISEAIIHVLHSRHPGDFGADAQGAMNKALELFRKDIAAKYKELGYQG

Regarding `CN(C)c1ccc(C(=C2C=CC(=[N+](C)C)C=C2)c2ccccc2)cc1` [MG, malachite green], the affinity, expressed as Kd, was 474 µM.
